Assays:
Assay type in all cases: in vivo
[1] = test system: Italian ryegrass (Lolium multiflorum); test: Test A preemergence, visual injury rating; details: 0 to 100 scale (0 no effect, 100 complete control)
How it was run: (§1)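 Compounds in non-phytotoxic solvent with surfactant applied as soil spray preemergence, or postemergence to plants 2-10 cm at one- to two-leaf stage, in loam/sand. After approximately 10 days in greenhouse, injury rated visually versus untreated controls, 0 (no effect) to 100 (complete control).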

[2] = test system: barnyardgrass (Echinochloa crus-galli); test: Test A preemergence, visual injury rating; details: 0 to 100 scale (0 no effect, 100 complete control)
How it was run: as §1

[3] = test system: giant foxtail (Setaria faberii); test: Test A preemergence, visual injury rating; details: 0 to 100 scale (0 no effect, 100 complete control)
How it was run: as §1

kochia (Kochia scoparia) [4] = test: Test A preemergence, visual injury rating; details: 0 to 100 scale (0 no effect, 100 complete control)
How it was run: as §1

[5] = test system: pigweed (Amaranthus retroflexus); test: Test A preemergence, visual injury rating; details: 0 to 100 scale (0 no effect, 100 complete control)
How it was run: as §1

[6] = test system: ragweed (common ragweed, Ambrosia elatior); test: Test A preemergence, visual injury rating; details: 0 to 100 scale (0 no effect, 100 complete control)
How it was run: as §1

[7] = test system: Italian ryegrass (Lolium multiflorum); test: Test A postemergence, visual injury rating; details: 0 is no effect, 100 is complete control
From the text: (§2) Seeds of plant species selected from barnyardgrass (Echinochloa crus-galli), kochia (Kochia scoparia), ragweed (common ragweed, Ambrosia elatior), Italian ryegrass (Lolium multiflorum), large (Lg) crabgrass (Digitaria sanguinalis), giant foxtail (Setaria faberii), morningglory (Ipomoea spp.), pigweed (Amaranthus retroflexus), velvetleaf (Abutilon theophrasti), wheat (Triticum aestivum), and corn (Zea mays) were planted into a blend of loam soil and sand and treated preemergence with a directed soil spray using test chemicals formulated in a non-phytotoxic solvent mixture which included a surfactant.
(§3) At the same time, plants selected from these crop and weed species and also blackgrass (Alopecurus myosuroides), and galium (catchweed bedstraw, Galium aparine) were planted in pots containing the same blend of loam soil and sand and treated with postemergence applications of test chemicals formulated in the same manner. Plants ranged in height from 2 to 10 cm and were in the one- to two-leaf stage for the postemergence treatment. Treated plants and untreated controls were maintained in a greenhouse for approximately 10 days, after which time all treated plants were compared to untreated controls and visually evaluated for injury. Plant response ratings, summarized in Table A, are based on a 0 to 100 scale where 0 is no effect and 100 is complete control. A dash (-) response means no test result.

[8] = test system: barnyardgrass (Echinochloa crus-galli); test: Test A postemergence, visual injury rating; details: 0 is no effect, 100 is complete control
From the text: as §2, §3

[9] = test system: blackgrass (Alopecurus myosuroides); test: Test A postemergence, visual injury rating; details: 0 is no effect, 100 is complete control
From the text: as §2, §3

corn (Zea mays) = test: Test A postemergence, visual injury rating; details: 0 is no effect, 100 is complete control
From the text: as §2, §3

[10] = test system: galium (catchweed bedstraw, Galium aparine); test: Test A postemergence, visual injury rating; details: 0 is no effect, 100 is complete control
From the text: as §2, §3

[11] = test system: giant foxtail (Setaria faberii); test: Test A postemergence, visual injury rating; details: 0 is no effect, 100 is complete control
From the text: as §2, §3

kochia (Kochia scoparia) [12] = test: Test A postemergence, visual injury rating; details: 0 is no effect, 100 is complete control
From the text: as §2, §3

[13] = test system: pigweed (Amaranthus retroflexus); test: Test A postemergence, visual injury rating; details: 0 is no effect, 100 is complete control
From the text: as §2, §3

[14] = test system: ragweed (common ragweed, Ambrosia elatior); test: Test A postemergence, visual injury rating; details: 0 is no effect, 100 is complete control
From the text: as §2, §3

[15] = test system: wheat (Triticum aestivum); test: Test A postemergence, visual injury rating; details: 0 is no effect, 100 is complete control
From the text: as §2, §3

[16] = test system: barnyardgrass (Echinochloa crus-galli); test: Test B flooded paddy test, plant response rating; details: 250 g ai/ha; Flood; scale of 0 to 100 where 0 is no effect and 100 is complete control; 13 to 15 days
From the text: (§4) At time of treatment, test pots were flooded to 3 cm above the soil surface, treated by application of test compounds directly to the paddy water, and then maintained at that water depth for the duration of the test. Treated plants and controls were maintained in a greenhouse for 13 to 15 days, after which time all species were compared to controls and visually evaluated. […] A dash (-) response means no test result.

[17] = test system: ducksalad (Heteranthera limosa); test: Test B flooded paddy test, plant response rating; details: 250 g ai/ha; Flood; scale of 0 to 100 where 0 is no effect and 100 is complete control; 13 to 15 days
From the text: as §4

rice (Oryza sativa) = test: Test B flooded paddy test, plant response rating; details: 250 g ai/ha; Flood; scale of 0 to 100 where 0 is no effect and 100 is complete control; 13 to 15 days
From the text: as §4

[18] = test system: sedge, umbrella (small-flower umbrella sedge, Cyperus difformis); test: Test B flooded paddy test, plant response rating; details: 250 g ai/ha; Flood; scale of 0 to 100 where 0 is no effect and 100 is complete control; 13 to 15 days
From the text: as §4

SMILES: O=C(OCC1CCCC1)c1c(Br)cccc1Oc1ncc(Cl)cn1 [Compound 6]
- Ryegrass, Italian plant response rating ([1]; 125 g ai/ha): 0
- Ryegrass, Italian plant response rating ([1]; 500 g ai/ha): 70
- Barnyardgrass plant response rating ([2]; 125 g ai/ha): 10
- Barnyardgrass plant response rating ([2]; 500 g ai/ha): 60
- Foxtail, Giant plant response rating ([3]; 125 g ai/ha): 60
- Foxtail, Giant plant response rating ([3]; 500 g ai/ha): 100
- Kochia plant response rating (kochia (Kochia scoparia) [4]; 125 g ai/ha): 0
- Kochia plant response rating (kochia (Kochia scoparia) [4]; 500 g ai/ha): 0
- Pigweed plant response rating ([5]; 125 g ai/ha): 10
- Pigweed plant response rating ([5]; 500 g ai/ha): 70
- Ragweed plant response rating ([6]; 125 g ai/ha): 0
- Ragweed plant response rating ([6]; 500 g ai/ha): 0
- Ryegrass, Italian plant response rating (0 to 100 scale) ([7]; 125 g ai/ha): 0
- Ryegrass, Italian plant response rating (0 to 100 scale) ([7]; 500 g ai/ha): 40
- Barnyardgrass plant response rating (0 to 100 scale) ([8]; 125 g ai/ha): 10
- Barnyardgrass plant response rating (0 to 100 scale) ([8]; 500 g ai/ha): 40
- Blackgrass plant response rating (0 to 100 scale) ([9]; 125 g ai/ha): 10
- Blackgrass plant response rating (0 to 100 scale) ([9]; 500 g ai/ha): 30
- Corn plant response rating (0 to 100 scale) (corn (Zea mays); 125 g ai/ha): 0
- Corn plant response rating (0 to 100 scale) (corn (Zea mays); 500 g ai/ha): 10
- Galium plant response rating (0 to 100 scale) ([10]; 125 g ai/ha): 60
- Galium plant response rating (0 to 100 scale) ([10]; 500 g ai/ha): 90
- Foxtail, Giant plant response rating (0 to 100 scale) ([11]; 125 g ai/ha): 10
- Foxtail, Giant plant response rating (0 to 100 scale) ([11]; 500 g ai/ha): 50
- Kochia plant response rating (0 to 100 scale) (kochia (Kochia scoparia) [12]; 125 g ai/ha): 40
- Kochia plant response rating (0 to 100 scale) (kochia (Kochia scoparia) [12]; 500 g ai/ha): 90
- Pigweed plant response rating (0 to 100 scale) ([13]; 125 g ai/ha): 60
- Pigweed plant response rating (0 to 100 scale) ([13]; 500 g ai/ha): 90
- Ragweed plant response rating (0 to 100 scale) ([14]; 125 g ai/ha): 10
- Ragweed plant response rating (0 to 100 scale) ([14]; 500 g ai/ha): 30
- Wheat plant response rating (0 to 100 scale) ([15]; 125 g ai/ha): 0
- Wheat plant response rating (0 to 100 scale) ([15]; 500 g ai/ha): 10
- Plant response rating, Barnyardgrass [16]: 0
- Plant response rating, Ducksalad [17]: 0
- Plant response rating, Rice (rice (Oryza sativa)): 0
- Plant response rating, Sedge, Umbrella [18]: 0

SMILES: O=C(OCC1CCC1)c1c(Br)cccc1Oc1ncc(Cl)cn1 [Compound 8]
- Ryegrass, Italian plant response rating ([1]; 125 g ai/ha): 0
- Ryegrass, Italian plant response rating ([1]; 500 g ai/ha): 30
- Barnyardgrass plant response rating ([2]; 125 g ai/ha): 30
- Barnyardgrass plant response rating ([2]; 500 g ai/ha): 100
- Foxtail, Giant plant response rating ([3]; 125 g ai/ha): 100
- Foxtail, Giant plant response rating ([3]; 500 g ai/ha): 100
- Kochia plant response rating (kochia (Kochia scoparia) [4]; 125 g ai/ha): 0
- Kochia plant response rating (kochia (Kochia scoparia) [4]; 500 g ai/ha): 0
- Pigweed plant response rating ([5]; 125 g ai/ha): 10
- Pigweed plant response rating ([5]; 500 g ai/ha): 60
- Ragweed plant response rating ([6]; 125 g ai/ha): 0
- Ragweed plant response rating ([6]; 500 g ai/ha): 0
- Ryegrass, Italian plant response rating (0 to 100 scale) ([7]; 125 g ai/ha): 0
- Ryegrass, Italian plant response rating (0 to 100 scale) ([7]; 500 g ai/ha): 30
- Barnyardgrass plant response rating (0 to 100 scale) ([8]; 125 g ai/ha): 10
- Barnyardgrass plant response rating (0 to 100 scale) ([8]; 500 g ai/ha): 40
- Blackgrass plant response rating (0 to 100 scale) ([9]; 125 g ai/ha): 0
- Blackgrass plant response rating (0 to 100 scale) ([9]; 500 g ai/ha): 20
- Corn plant response rating (0 to 100 scale) (corn (Zea mays); 125 g ai/ha): 0
- Corn plant response rating (0 to 100 scale) (corn (Zea mays); 500 g ai/ha): 20
- Galium plant response rating (0 to 100 scale) ([10]; 125 g ai/ha): 60
- Galium plant response rating (0 to 100 scale) ([10]; 500 g ai/ha): 90
- Foxtail, Giant plant response rating (0 to 100 scale) ([11]; 125 g ai/ha): 30
- Foxtail, Giant plant response rating (0 to 100 scale) ([11]; 500 g ai/ha): 60
- Kochia plant response rating (0 to 100 scale) (kochia (Kochia scoparia) [12]; 125 g ai/ha): 40
- Kochia plant response rating (0 to 100 scale) (kochia (Kochia scoparia) [12]; 500 g ai/ha): 80
- Pigweed plant response rating (0 to 100 scale) ([13]; 125 g ai/ha): 50
- Pigweed plant response rating (0 to 100 scale) ([13]; 500 g ai/ha): 90
- Ragweed plant response rating (0 to 100 scale) ([14]; 125 g ai/ha): 10
- Ragweed plant response rating (0 to 100 scale) ([14]; 500 g ai/ha): 40
- Wheat plant response rating (0 to 100 scale) ([15]; 125 g ai/ha): 0
- Wheat plant response rating (0 to 100 scale) ([15]; 500 g ai/ha): 0
- Plant response rating, Barnyardgrass [16]: 0
- Plant response rating, Ducksalad [17]: 0
- Plant response rating, Rice (rice (Oryza sativa)): 0
- Plant response rating, Sedge, Umbrella [18]: 70

Source: US11053204B2, “Pyrimidinyloxy benzene derivatives as herbicides” (FMC Corporation, priority 2015, dated 2021)
